Source: patent US20230322792A1, “CDK9 INHIBITORS” (Biolexis Therapeutics, Inc., priority 2022, published 2023)

molecular target: CDK9/CycT1 (Homo sapiens (Human), UniProt P50750); assay: ADP-Glo Kinase Assay; assay type: biochemical
Method: ADP-Glo assay kit was purchased from Promega and the CDK9/CycT1 protein and PDKtide substrate were purchased from SignalChem. […] The reaction is started by pre-incubating 4 μL of protein (20 nM), 2 μL of substrate (100 μM), and 2 μL of serial diluted drug in 1× assay buffer (50 mM HEPES, 3 mM MgCl2, 3 mM MnCl2, and 1 mM DTT) for 30 minutes. After pre-incubating, 4 μL of ATP (1 μM) is added to each well and incubated for an additional 90 minutes. The ADP-Glo Reagent (10 μL) and Kinase Detection Reagent (20 μL) are added to each well and incubated as recommended by Promega. The reaction is quantified by measuring luminescence and the IC50 is calculated using GraphPad Prism software.

CDK9/CycT1, sequence (P50750 whole entry): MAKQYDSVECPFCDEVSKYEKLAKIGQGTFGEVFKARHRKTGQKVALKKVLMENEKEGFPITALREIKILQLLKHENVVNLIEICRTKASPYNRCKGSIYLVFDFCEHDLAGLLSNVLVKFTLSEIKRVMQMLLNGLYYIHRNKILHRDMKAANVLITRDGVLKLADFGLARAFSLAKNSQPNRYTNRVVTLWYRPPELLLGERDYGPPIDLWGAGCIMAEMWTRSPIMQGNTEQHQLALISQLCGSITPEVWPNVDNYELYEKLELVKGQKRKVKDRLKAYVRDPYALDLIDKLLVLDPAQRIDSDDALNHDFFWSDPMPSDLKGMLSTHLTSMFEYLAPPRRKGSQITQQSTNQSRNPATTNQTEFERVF
CDK9/CycT1, sequence (O60563 whole entry partner): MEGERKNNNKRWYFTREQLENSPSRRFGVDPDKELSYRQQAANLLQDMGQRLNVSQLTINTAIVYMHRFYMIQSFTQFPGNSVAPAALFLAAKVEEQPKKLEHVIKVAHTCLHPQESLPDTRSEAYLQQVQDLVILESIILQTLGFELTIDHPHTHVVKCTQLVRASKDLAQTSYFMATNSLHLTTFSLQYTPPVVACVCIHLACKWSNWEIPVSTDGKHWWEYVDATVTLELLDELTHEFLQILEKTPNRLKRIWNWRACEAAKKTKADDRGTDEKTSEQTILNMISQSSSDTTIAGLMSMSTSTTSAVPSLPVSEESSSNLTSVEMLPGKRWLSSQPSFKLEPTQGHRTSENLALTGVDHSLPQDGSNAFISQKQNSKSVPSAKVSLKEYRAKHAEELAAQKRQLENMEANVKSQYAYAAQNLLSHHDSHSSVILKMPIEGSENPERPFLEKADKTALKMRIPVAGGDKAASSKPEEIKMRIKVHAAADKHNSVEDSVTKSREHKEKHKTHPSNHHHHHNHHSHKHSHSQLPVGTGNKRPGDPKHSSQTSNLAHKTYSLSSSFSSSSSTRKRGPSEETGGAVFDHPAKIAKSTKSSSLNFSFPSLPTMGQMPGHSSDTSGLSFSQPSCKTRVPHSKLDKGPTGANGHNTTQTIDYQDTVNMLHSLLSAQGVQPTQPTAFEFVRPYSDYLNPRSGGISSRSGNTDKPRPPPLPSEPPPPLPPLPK

Structure (SMILES) | IC50
CC(C)c1cnn2ccc(-c3ccnc(NC[C@@H]4CCNC[C@H]4O)n3)nc12 (relative stereo) [Compound I-6, trans-5-[2-(3-hydroxypiperidin-4-yl)methylaminopyrimidin-4-yl]-3-isopropylpyrazolo[1,5-a]pyrimidine] | < 1000 nM
O[C@@H]1CNCC[C@H]1CNc1nccc(-c2ccn3ncc(C4CCC4)c3n2)n1 (relative stereo) [Compound I-5, trans-5-[2-(3-hydroxypiperidin-4-yl)methylaminopyrimidin-4-yl]-3-cyclobutylpyrazolo[1,5-a]pyrimidine] | 1000 to 5000 nM
CC(C)c1cnn2ccc(-c3ccnc(N[C@H]4CC[C@H](NC5CCOCC5)CC4)n3)nc12 [Compound I-3, trans-N^1-[4-[(3-isopropyl)pyrazolo[1,5-a]pyrimidin-5-yl]pyrimidin-2-yl]-N^4-(tetrahydro-2H-pyran-4-yl)cyclohexane-1,4-diamine] | < 1000 nM
CC(C)c1cnn2ccc(-c3ccnc(N[C@H]4CC[C@H](N)C4)n3)nc12 [Compound I-14, (1S, 3S)-[3-[4-[3-isopropylpyrazolo[1,5-a]pyrimidin-5-yl]pyrimidin-2-yl]aminocyclopentan-1-yl]-1,3-diamine] | < 1000 nM
c1cc(-c2ccn3nccc3n2)nc(N[C@H]2CC[C@H](NC3CCOCC3)CC2)n1 [Compound I-10, trans-N^1-[4-[pyrazolo[1,5-a]pyrimidin-5-yl]pyrimidin-2-yl]-N^4-(tetrahydro-2H-pyran-4-yl)cyclohexane-1,4-diamine] | 1000 to 5000 nM
Cc1cnn2ccc(-c3ccnc(N[C@H]4CC[C@H](N)C4)n3)nc12 [Compound I-12, (1S, 3S)-[3-[4-[3-methylpyrazolo[1,5-a]pyrimidin-5-yl]pyrimidin-2-yl]aminocyclopentan-1-yl]-1,3-diamine] | < 1000 nM
N[C@H]1CC[C@H](Nc2nccc(-c3ccn4nccc4n3)n2)C1 [Compound I-11, (1S, 3S)-[3-[4-[pyrazolo[1,5-a]pyrimidin-5-yl]pyrimidin-2-yl]aminocyclopentan-1-yl]-1,3-diamine] | < 1000 nM
Cc1cc2nc(-c3ccnc(N[C@H]4CC[C@H](N)C4)n3)ccn2n1 [Compound I-13, (1S, 3S)-[3-[4-[2-methylpyrazolo[1,5-a]pyrimidin-5-yl]pyrimidin-2-yl]aminocyclopentan-1-yl]-1,3-diamine] | 5000 to 10000 nM
c1cc(-c2ccn3ncc(C4CCC4)c3n2)nc(N[C@H]2CC[C@H](NC3CCOCC3)CC2)n1 [Compound I-2, trans-N^1-[4-[(3-cyclobutyl)pyrazolo[1,5-a]pyrimidin-5-yl]pyrimidin-2-yl]-N^4-(tetrahydro-2H-pyran-4-yl)cyclohexane-1,4-diamine] | 1000 to 5000 nM
c1cc(-c2ccn3nccc3n2)nc(NC2CCNCC2)n1 [Compound I-8, trans-5-[2-(piperidin-4-yl)aminopyrimidin-4-yl]pyrazolo[1,5-a]pyrimidine] | 1000 to 5000 nM
O[C@@H]1CNCC[C@H]1CNc1nccc(-c2ccn3nccc3n2)n1 (relative stereo) [Compound I-7, trans-5-[2-(3-hydroxypiperidin-4-yl)methylaminopyrimidin-4-yl]pyrazolo[1,5-a]pyrimidine] | 1000 to 5000 nM
O[C@@H]1CNCC[C@H]1CNc1nccc(-c2ccn3ncc(C4CC4)c3n2)n1 (relative stereo) [Compound I-4, trans-5-[2-(3-hydroxypiperidin-4-yl)methylaminopyrimidin-4-yl]-3-cyclopropylpyrazolo[1,5-a]pyrimidine] | < 1000 nM
c1cc(-c2ccn3ncc(C4CC4)c3n2)nc(N[C@H]2CC[C@H](NC3CCOCC3)CC2)n1 [Compound I-1, trans-N^1-[4-[(3-cyclopropyl)pyrazolo[1,5-a]pyrimidin-5-yl]pyrimidin-2-yl]-N^4-(tetrahydro-2H-pyran-4-yl)cyclohexane-1,4-diamine] | 1000 to 5000 nM
N[C@H]1CC[C@@H](Nc2nccc(-c3ccn4nccc4n3)n2)C1 [Compound I-9, (1S, 3R)-[3-[4-[pyrazolo[1,5-a]pyrimidin-5-yl]pyrimidin-2-yl]aminocyclopentan-1-yl]-1,3-diamine] | < 1000 nM
